# According to patent publication US20240294551A1 (AMGEN INC., priority 2022, published 2024):
# Where two headings read alike, the source gives them in different places.
# Columns and labels:
# [1] = target: GDP-bound KRAS protein (aa 1-169), containing both G12D and C118A amino acid substitutions (Homo sapiens (Human), UniProt P01116, C118A/G12D); experiment: KRAS G12D Coupled Nucleotide Exchange Assay; assay type: biochemical
# Protocol: KRAS G12D Coupled Nucleotide Exchange Assay
# Following compound pre-incubation, purified SOS protein (aa 564-1049) and GTP (Roche 10106399001) were added to the assay wells and incubated for an additional 30 min. To determine the extent of inhibition of SOS-mediated nucleotide exchange, purified GST-tagged cRAF (aa 1-149), nickel chelate AlphaLISA acceptor beads (PerkinElmer AL108R), and AlphaScreen glutathione donor beads (PerkinElmer 6765302) were added to the assay wells and incubated for 10 minutes. The assay plates were then read on a PerkinElmer EnVision Multilabel Reader, using AlphaScreen® technology, and data were analyzed using a 4-parameter logistic model to calculate IC50 values.
# [2] = target: His-tagged KRAS G12D protein (Homo sapiens (Human), UniProt P01116, G12D); experiment: KRAS G12D TR-FRET Assay; assay type: binding
# Chain of His-tagged KRAS G12D protein (P01116 other isoform, or with tags, fused parts or gaps G12D): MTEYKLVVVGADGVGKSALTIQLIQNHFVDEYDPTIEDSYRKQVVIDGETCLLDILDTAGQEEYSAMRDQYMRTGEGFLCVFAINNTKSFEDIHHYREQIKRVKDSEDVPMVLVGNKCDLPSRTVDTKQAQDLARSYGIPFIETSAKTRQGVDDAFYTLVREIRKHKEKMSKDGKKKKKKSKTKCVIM
# Protocol: Compounds of interest were prepared in a dose-response titration in DMSO, and 80 nL were added via Labcyte Echo to each well of a 384-well plate (Perkin Elmer 6008280). The His-tagged KRAS G12D protein (Amgen) was diluted to 20 nM in Assay Buffer (20 mM HEPES, pH 7.4, 10 mM MgCl2, 50 mM NaCl, 0.1% BSA, 0.01% Tween-20, 10 μM GDP) and 2 μL was added to the appropriate wells of the 384-well plate. The plate was incubated for 30 minutes at room temperature. Biotinylated KRPep-2d substrate (Amgen) was diluted to 20 nM in Assay Buffer and 2 μL was added to all wells and incubated for 1 hour at room temperature. Detection Reagent (0.4 nM LANCE Eu-W1024 Anti-6×His (Perkin Elmer AD0401), 5 nM streptavidin-d2 (Cisbio 610SADLA)) was prepared in Assay Buffer, then 4 μL was added to the plate and incubated for 1 hour at room temperature. Plates were read using PerkinElmer EnVision (ex: 320 nm, em1: 665 nm, em2: 615 nm) and em1/em2 data was used to generate curve fits using a 4-parameter logistic model to calculate IC50 values.
# [3] = read-out: KRAS G12D Coupled Exchange IC50
# [4] = read-out: KRAS G12D Binding IC50
# [5] = 2 hours compound pre-incubation, read-out: KRAS G12D Coupled Exchange
# [6] = TR-FRET, read-out: KRAS G12D Binding
# Chain of GDP-bound KRAS protein (aa 1-169), containing both G12D and C118A amino acid substitutions (P01116 other isoform, or with tags, fused parts or gaps G12D/C118A): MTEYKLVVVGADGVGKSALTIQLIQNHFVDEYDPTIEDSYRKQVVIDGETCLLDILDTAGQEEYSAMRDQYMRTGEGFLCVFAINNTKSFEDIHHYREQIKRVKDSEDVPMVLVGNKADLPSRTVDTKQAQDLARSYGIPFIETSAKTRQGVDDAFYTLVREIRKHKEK
SMILES,"IC50 [1, 3] [nM]","IC50 [2, 4] [nM]","IC50 [1, 5] [nM]","IC50 [2, 6] [nM]"
[O-][S+]1CCCCc2c(Cl)cc3[nH]ncc3c2-c2ncc3c(nc(OC[C@@]45CCCN4C[C@H](F)C5)nc3c2F)N2CCC[C@H](C2)C1 (mixture of isomers) [Example 144],79,146,,
"Cc1cc2[nH]ncc2c2c1CCCCCC(=O)O[C@@H]1CCCN(C1)c1nc(OC[C@@]34CCCN3C[C@H](F)C4)nc3c(F)c-2ncc13 [Example 34, (18R)-31-fluoro-25-(((2R,7aS)-2-fluorotetrahydro-1H-pyrrolo[1,2-a]pyrrol-7a(5H)-yl)methoxy)-9-methyl-17-oxa-5,6,22,24,26,30-hexaazahexacyclo[25.3.1.1~18,22~.0~2,10~.0~3,7~.0~23,28~]dotriaconta-1(31),2,4,7,9,23,25,27,29-nonaen-16-one]",177,220,,
"O=C1OCCCc2c(Cl)cc3[nH]ncc3c2-c2c(F)cc3c(nc(OC[C@@]45CCCN4C[C@H](F)C5)nc3c2F)N2CCOC[C@H](C2)O1 [Example 188, m-(26S)-18-chloro-9,32-difluoro-4-(((2R,7aS)-2-fluorotetrahydro-1H-pyrrolo[1,2-a]pyrrol-7a(5H)-yl)methoxy)-23,25,28-trioxa-1,3,5,14,15-pentaazahexacyclo[24.4.1.1~6,10~.0~2,7~.0~11,19~.0~12,16~]dotriaconta-2,4,6,8,10(32),11,13,16,18-nonaen-24-one]",44,71,,
"O=C1N[C@H]2CN(C[C@H]3C[C@H]32)c2nc(OC[C@@]34CCCN3C[C@H](F)C4)nc3c(F)c(ncc23)-c2c(c(Cl)cc3[nH]ncc23)CCC[C@H]1F [Example 173, (23R,26R,27R,29S)-18-chloro-23,32-difluoro-4-(((2R,7aS)-2-fluorotetrahydro-1H-pyrrolo[1,2-a]pyrrol-7a(5H)-yl)methoxy)-1,3,5,9,14,15,25-heptaazaheptacyclo[24.4.1.1~6,10~.0~2,7~.0~11,19~.0~12,16~.0~27,29~]dotriaconta-2,4,6,8,10(32),11,13,16,18-nonaen-24-one]",1110,1570,,
Cc1cc2[nH]ncc2c2c1CC/C=C\CO[C@@H]1CCCN(C1)c1nc(OC[C@@]34CCCN3C[C@H](F)C4)nc3c(F)c-2ncc13 [Example 133],240,241,,
"O=C1CCCc2c(F)ccc3cccc(c23)-c2ncc3c(nc(OC[C@@]45CCCN4C[C@H](F)C5)nc3c2F)N2CCOC[C@H](C2)N1 [Example 70, (16S)-23,32-difluoro-8-(((2R,7aS)-2-fluorotetrahydro-1H-pyrrolo[1,2-a]pyrrol-7a(5H)-yl)methoxy)-14-oxa-3,7,9,11,17-pentaazahexacyclo[20.7.1.1~2,6~.1~11,16~.0~5,10~.0~26,30~]dotriaconta-1(29),2(32),3,5,7,9,22,24,26(30),27-decaen-18-one]",274,277,,
"Cc1c2ncc3c(nc(OCC(C)(C)O)nc13)N1CCC[C@](C)(C1)NC(=O)CCCc1c(F)ccc3cc(O)cc-2c13 [Example 26, (15R)-22-Fluoro-27-hydroxy-8-(2-hydroxy-2-methylpropoxy)-15,31-dimethyl-3,7,9,11,16-pentaazahexacyclo[19.7.1.1˜2,6˜.1˜11,15˜.0˜5,10˜.0˜25,29˜]hentriaconta-1(28),2(31),3,5,7,9,21,23,25(29),26-decaen-17-one]",109,124,,
"O=C1CCCCc2c(Cl)cccc2-c2ncc3c(nc(OC[C@@]45CCCN4C[C@H](F)C5)nc3c2F)N2CC[C@@H]3CCN1[C@@H]3C2 [Example 163, (25R,29S)-15-chloro-30-fluoro-4-(((2R,7aS)-2-fluorotetrahydro-1H-pyrrolo[1,2-a]pyrrol-7a(5H)-yl)methoxy)-1,3,5,9,22-pentaazahexacyclo[20.5.2.1~6,10~.0~2,7~.0~11,16~.0~25,29~]triaconta-2,4,6,8,10(30),11,13,15-octaen-21-one]",1570,2840,,
"Cc1cc2[nH]ncc2c2c1CCCCC(=O)OC1CN(CC3(CC3)C1)c1nc(OC[C@@]34CCCN3C[C@H](F)C4)nc3c(F)c-2ncc13 (mixture of isomers) [Example 80, (17′R)-30′-fluoro-24′-(((2R,7aS)-2-fluorotetrahydro-1H-pyrrolo[1,2-a]pyrrol-7a(5H)-yl)methoxy)-9′-methyl-16′-oxa-5′,6′,21′,23′,25′,29′-hexaazaspiro[cyclopropane-1,19′-hexacyclo[24.3.1.1~17,21~.0~2,10~.0~3,7~.0~22,27~]hentriacontane]-1′(30′),2′,4′,7′,9′,22′,24′,26′,28′-nonaen-15′-one]",47,55,,
"CN1CCC[C@H]1COc1nc2c3cnc(c(F)c3n1)-c1c(c(Cl)cc3[nH]ncc13)CCCOC(=O)O[C@@]1(C)COCCN2C1 [Example 180, (26R)-18-chloro-32-fluoro-26-methyl-4-(((2S)-1-methyl-2-pyrrolidinyl)methoxy)-23,25,28-trioxa-1,3,5,9,14,15-hexaazahexacyclo[24.4.1.1~6,10~.0~2,7~.0~11,19~.0~12,16~]dotriaconta-2,4,6,8,10(32),11,13,16,18-nonaen-24-one]",689,1510,,

# Further lines, results first:
"IC50 [1, 3] [nM]","IC50 [2, 4] [nM]","IC50 [1, 5] [nM]","IC50 [2, 6] [nM]",SMILES
1490,2260,,,"O=C1OCCCc2c(Cl)cc3[nH]ncc3c2-c2ncc3c(nc(OC[C@@]45CCCN4C[C@H](F)C5)nc3c2F)N2CCOC[C@@](CF)(C2)O1 [Example 310, (26R)-18-chloro-32-fluoro-26-(fluoromethyl)-4-(((2R,7aS)-2-fluorotetrahydro-1H-pyrrolo[1,2-a]pyrrol-7a(5H)-yl)methoxy)-23,25,28-trioxa-1,3,5,9,14,15-hexaazahexacyclo[24.4.1.1~6,10~.0~2,7~.0~11,19~.0~12,16~]dotriaconta-2,4,6(32),7,9,11,13,16,18-nonaen-24-one]"
831,1270,,,"O=C1N[C@@H]2CCCCN(C2)c2nc(OC[C@@]34CCCN3C[C@H](F)C4)nc3c(F)c(ncc23)-c2c3c(cc4[nH]ncc24)CC[C@@H]3CCO1 [Example 302, (16R,22R)-34-fluoro-8-(((2R,7aS)-2-fluorotetrahydro-1H-pyrrolo[1,2-a]pyrrol-7a(5H)-yl)methoxy)-19-oxa-3,7,9,11,17,28,29-heptaazaheptacyclo[20.9.1.1~2,6~.1~11,16~.0~5,10~.0~25,32~.0~27,31~]tetratriaconta-1(31),2(34),3,5,7,9,25(32),26,29-nonaen-18-one]"
,,15,34,O[C@H]1C[C@@H]2CN(C1)c1nc(OC[C@@]34CCCN3C[C@H](F)C4)nc3c(F)c(ncc13)-c1c(c(Cl)cc3[nH]ncc13)CCCc1nc2no1 [Example 378]
,,1170,1810,"Fc1c2ncc3c(nc(OC[C@@]45CCCN4C[C@H](F)C5)nc13)N1CCO[C@@H](COCC[C@H]3C[C@H]3c3c(Cl)cc4[nH]ncc4c3-2)C1 [Example 393, (11R,13R,18R)-9-chloro-31-fluoro-25-(((2R,7aS)-2-fluorotetrahydro-1H-pyrrolo[1,2-a]pyrrol-7a(5H)-yl)methoxy)-16,19-dioxa-5,6,22,24,26,30-hexaazaheptacyclo[25.3.1.1~18,22~.0~2,10~.0~3,7~.0~11,13~.0~23,28~]dotriaconta-1(31),2,4,7,9,23,25,27,29-nonaene]"
214,167,,,"O=C1OCCCc2c(Cl)cc3[nH]ncc3c2-c2ncc3c(nc(O[C@H]4CCOC4)nc3c2F)N2CCOC[C@H](C2)O1 [Example 196, (26S)-18-chloro-32-fluoro-4-((3S)-tetrahydro-3-furanyloxy)-23,25,28-trioxa-1,3,5,9,14,15-hexaazahexacyclo[24.4.1.1~6,10~.0~2,7~.0~11,19~.0~12,16~]dotriaconta-2,4,6,8,10(32),11,13,16,18-nonaen-24-one]"
268,617,,,"Cc1nc2c3cnc(c(F)c3n1)-c1c(c(C)cc3[nH]ncc13)[C@H]1C[C@H]1COC(=O)O[C@@H]1CCCN2C1 [Example 211, (11S,13R,18R)-31-fluoro-9,25-dimethyl-15,17-dioxa-5,6,22,24,26,30-hexaazaheptacyclo[25.3.1.1~18,22~.0~2,10~.0~3,7~.0~11,13~.0~23,28~]dotriaconta-1(31),2,4,7,9,23,25,27,29-nonaen-16-one]"
16400,50000,,,"Cc1cc2[nH]ncc2c2c1CCCOC(=O)N[C@@]1(C)CCCCN(C1)c1nc(OC[C@@]34CCCN3C[C@H](F)C4)nc3c(F)c-2ncc13 [Example 293, (26S)-32-fluoro-4-(((2R,7aS)-2-fluorotetrahydro-1H-pyrrolo[1,2-a]pyrrol-7a(5H)-yl)methoxy)-18,26-dimethyl-23-oxa-1,3,5,9,14,15,25-heptaazahexacyclo[24.4.1.1~6,10~.0~2,7~.0~11,19~.0~12,16~]dotriaconta-2,4,6(32),7,9,11,13,16,18-nonaen-24-one]"
